# Source: patent US8828469B2, “Use of alkamides for masking an unpleasant flavor” (Symrise AG, priority 2007, dated 2014)
# Experiment: Tests carried out by the Applicant on masking or reducing unpleasant flavor impressions
# Details: for effect for masking or reducing the unpleasant flavor impression of an unpleasant-tasting substance: among the alkamides tested by the Applicant
Compound,effect for masking or reducing the unpleasant flavor impression of an unpleasant-tasting substance,"effect to change, mask or reduce the unpleasant flavor impression (very low concentrations which are not sufficient to intensify salivation)"
"CCCCC/C=C/C=C/C(=O)NCC(C)C [Formula (1), 2E,4E-decadienoic acid-N-isobutylamide]",best effect,very strong effect
"CCCCC/C=C\C=C/C(=O)NCC(C)C [Formula (3), 2Z,4Z-decadienoic acid-N-isobutylamide]",best effect,
"CCCCC/C=C/C=C\C(=O)NCC(C)C [Formula (4), 2Z,4E-decadienoic acid-N-isobutylamide]",best effect,
"CCCCC/C=C\C=C\C(=O)NCC(C)C [Formula (2), 2E,4Z-decadienoic acid-N-isobutylamide]",best effect,
